Data published in patent publication US20120122816A1, “COMPOSITIONS AND METHODS FOR ORGAN PRESERVATION” (Resolvyx Pharmaceuticals, Inc., priority 2009, published 2012).
Like-named read-outs stand apart in the source and are kept apart here.

Legend:
H9C2 cells [1] = assay: Protection against hypoxia-reoxygenation injury (trypan blue uptake, MTT); format: cell-based, rat
Method: The ability of compound X to protect cardiomyocytes against hypoxia-reoxygenation injury was measured using the following protocol.
H9C2 cells derived from embryonic rat heart tissue were incubated with compound X (0, 1, 10, 100, or 1000 nM). Cells were subjected to 16 h of hypoxia and 2 h of reoxygenation. Cell death was assessed by trypan blue (TB) uptake and cell viability by MTT (3-(4,5-dimethylthiazol-2-yl)-2,5-diphenyl tetrazolium bromide) assay.

H9C2 cells [2] = assay: as above; format: cell-based, rat; remark: listed apart in the source
Rats = assay: Protection against ischemia reperfusion injury (coronary artery occlusion and reperfusion); format: in vivo, rat
Method: The ability of compound X, administered before reperfusion, to limit myocardial infarct size (IS) was measured using the following protocol.
Rats were anesthetized with ketamine and xylazine and underwent 30 min of coronary artery occlusion and 4 h of reperfusion. Just before reperfusion rats received compound X i.v. (0.03 mg/kg, 0.1 mg/kg or 0.3 mg/kg) or vehicle alone (control). Area at risk (AR) was assessed by blue dye and IS by triphenyltetrazoliumchloride (TTC) staining.

ARPE-19 cells = assay: Oxidative stress-induced apoptosis (TNF-α/H2O2), Hoechst positive cells; format: cell-based; conditions: for oxidative stress-induced apoptosis, concentration dependence: 10, 30 and 50 nM; for inhibition at 0.03 µM / inhibition at 0.05 µM: Homo sapiens, ARPE-19; for inhibition at 0.05 µM: 50 nM compound
Method: (§1) The effects of compounds of the invention on apoptotic cell death induced by oxidative stress and on Il-1β induced pro-inflammatory COX-2 gene expression in ARPE-19 cells was measured using the following protocol.
(§2) 72 h grown cells in 6 well plates were serum starved for 8 h, and then oxidative stress was induced with TNF-α/H2O2 (600 μM) for 16 h. Cells were incubated with different concentrations of compound X, compound Z, and compound 48b. Apoptotic cell death was scored by Hoechst positive cells. COX-2 (−830) promoter construct, linked to luciferase reporter gene, was used to transfect ARPE-19 cells by Fugene-6. A β-galactosidase plasmid was co-transfected as transfection control. Transfected cells were serum starved, induced by Il-1β, and incubated with different concentrations of compound X, compound Z, and compound 48b. Luciferase assays were performed using luciferin as substrate.

COX-2 gene expression = assay: Il-1β induced COX-2 promoter luciferase reporter assay in ARPE-19 cells; format: cell-based; conditions: FIG. 3
Method: as §1, §2

[3] = i.v. 0.03-0.3 mg/kg, anesthetized rats
[4] = 30 nM compound, TNF-α/H2O2 (600 μM) 16 h, FIG. 1, read-out: inhibition of oxidative stress-induced apoptosis
[5] = TNF-α/H2O2 (600 μM) 16 h, FIG. 1

Row | Compound | TB (%) (trypan blue positive cells) (H9C2 cells [1]; 1.0 nM, 16 h hypoxia, 2 h reoxygenation) | TB (%) (trypan blue positive cells) (H9C2 cells [1]; 10 nM, 16 h hypoxia, 2 h reoxygenation) | TB (%) (trypan blue positive cells) (H9C2 cells [1]; 100 nM, 16 h hypoxia, 2 h reoxygenation) | TB (%) (trypan blue positive cells) (H9C2 cells [1]; 1000 nM, 16 h hypoxia, 2 h reoxygenation) | viability at 0.001 µM (H9C2 cells [1]; Rattus norvegicus, H9c2, 1.0 nM, 16 h hypoxia, 2 h reoxygenation, read-out: MTT (%) (cell viability)) | viability at 0.01 µM (H9C2 cells [1]; Rattus norvegicus, H9c2, 10 nM, 16 h hypoxia, 2 h reoxygenation, read-out: MTT (%) (cell viability)) | viability at 0.1 µM (H9C2 cells [1]; Rattus norvegicus, H9c2, 100 nM, 16 h hypoxia, 2 h reoxygenation, read-out: MTT (%) (cell viability)) | viability at 1 µM (H9C2 cells [1]; Rattus norvegicus, H9c2, 1000 nM, 16 h hypoxia, 2 h reoxygenation, read-out: MTT (%) (cell viability)) | concentration of maximal effect (H9C2 cells [1]; tested 1-1000 nM) [nM] | apoptosis (H9C2 cells [2]) | myocardial infarct size (IS) (Rats; i.v. 0.03, 0.1 or 0.3 mg/kg just before reperfusion, 30 min occlusion, 4 h reperfusion, FIG. 4) | heart rate (Rats; [3]) | mean blood pressure (Rats; [3]) | oxidative stress-induced apoptosis, concentration dependence (ARPE-19 cells) | inhibition at 0.03 µM (ARPE-19 cells; [4]) [%] | inhibition at 0.05 µM (ARPE-19 cells; [5]) [%] | inhibition at 0.03 µM (ARPE-19 cells; each compound at 30 nM, plus compound 48b, FIG. 2, read-out: combined inhibition of apoptosis upon addition of compound 48b) [%] | expression of pro-inflammatory COX-2 (COX-2 gene expression)
1 | CC[C@@H](O)/C=C/C=C\C[C@@H](O)/C=C/C=C/C=C\[C@@H](O)CCCC(=O)O [Compound X] | 35.5 ± 0.4 | 30.3 ± 0.4 | 23.8 ± 0.9 | 24.1 ± 0.3 | 50.1 ± 0.8 | 62.6 ± 1.2 | 74.6 ± 0.9 | 70.5 ± 0.5 | 100 | decreased apoptosis | dose-dependently limited IS | did not affect | did not affect | inhibit oxidative stress-induced apoptosis in a concentration dependent manner | ~20 | ~30 | ~60 | inhibited
2 | CC/C=C\C[C@H](O)\C=C/C=C/C=C/[C@H](O)C/C=C\C/C=C\CCC(=O)O [Compound 48b] | – | – | – | – | – | – | – | – | – | – | – | – | – | inhibit oxidative stress-induced apoptosis in a concentration dependent manner | ~45 | ~80 | – | stronger inhibition
